According to article PMC11477298, “Small Molecules Inducing Autophagic Degradation of Expanded Polyglutamine Protein through Interaction with Both Mutant ATXN3 and LC3” (International Journal of Molecular Sciences, 2024):

How the values were obtained:
Type in all cases: cell-based, human
[1] = MTT compound cytotoxicity assay; settings: human, ATXN3-Q75-GFP SH-SY5Y cells, 0.1–100 μM compound, viability analyzed the next day, n = 3
Procedure: For the compound cytotoxicity assay, ATXN3-Q75-GFP SY5Y cells (2 × 10^4) were plated into 96-well dishes, grown for 20 h, and treated with 0.1–100 μM test compounds. After 1 day, 3-(4,5-dimethylthiazol-2-yl)-2,5-diphenyltetrazolium bromide (MTT, 5 mg/mL) (Sigma-Aldrich, St. Louis, MO, USA) was added to the cells and incubated for 3 h at 37 °C. Lysis buffer (10% Triton X-100, 0.1 N HCl, 18% isopropanol) was then added to dissolve the insoluble formazan crystals. The absorbance of the purple-colored solution was measured at optical density (OD) 570 nm by using a FLx800 fluorescence microplate spectrophotometer (Bio-Tek, Winooski, VT, USA). The half-maximal inhibitory concentration (IC50) was calculated through the construction of a dose–response curve.

[2] = tested on: ATXN3-Q75-GFP SH-SY5Y cells; experiment: High-content neurite outgrowth assay; settings: for Neurite branch: untreated 1.16; for Neurite length: untreated 23.2 µm
Procedure: (§1) ATXN3-Q75-GFP SH-SY5Y cells (5 × 10^4/well) were plated onto 24-well plates, with retinoic acid addition (10 µM; Sigma-Aldrich) on day 1 to initiate neuronal differentiation. On day 2, the cells were pretreated with disaccharide trehalose (10 mM, as a positive control) or the studied compounds (10 μM) for 8 h, followed by the addition of doxycycline (5 μg/mL, Sigma-Aldrich) to induce ATXN3-Q75-GFP expression. The cells were kept in the medium containing retinoic acid, the test compound, and doxycycline for 6 days, with the culture medium changed on day 5. ATXN3-Q75 aggregation and neurite outgrowth assays were performed on day 8 using a high-content imaging system (ImageXpress Micro Confocal; Molecular Devices).
For the aggregation assay, cells were stained with Hoechst 33342 (0.1 µg/mL; Sigma-Aldrich) at 37 °C for 30 min. Images of the cells were automatically obtained at excitation/emission wavelengths of 482/536 nm (FITC [fluorescein isothiocyanate] filter) for enhanced GFP and 377/447 nm (DAPI [4′,6-diamidino-2-phenylindole] filter) for nucleus counting. ATXN3-Q75 aggregation was determined by Transfluor technology based on GFP fluorescence intensity. For the neurite outgrowth assay, cells were fixed with 4% paraformaldehyde for 30 min, permeabilized with 0.1% Triton X-100 for 10 min, and blocked by non-specific binding with 3% bovine serum albumin for 20 min. The primary TUBB3 (neuronal class III β-tubulin) antibody (1:1000; BioLegend #802001, San Diego, CA, USA) was used to stain cells at 4 °C overnight, followed by Alexa Fluor 555-donkey anti-rabbit IgG secondary antibody (1:1000; Invitrogen #A-31572) staining for 2 h at room temperature. Nuclei were detected using DAPI (0.1 μg/mL; Sigma-Aldrich). Cell images were obtained at excitation/emission wavelengths of 531/593 nm (TRITC [tetramethylrhodamine] filter) for stained neurites and 377/447 nm (DAPI filter) for nuclei. To quantify neurite outgrowth, microscopic images were segmented with multi-colored masks to assign each outgrowth to a cell body for quantification. Neurite total length (μm) and numbers of process (primary neurites originating from neuronal cell body) and branch (secondary neurites extended from primary neurites) were analyzed (Neurite Outgrowth Application Module; Molecular Devices). In general, […] in each biological replicate were analyzed.

[3] = tested on: ATXN3-Q75-GFP SH-SY5Y cells; experiment: Confocal microscopy of LC3 puncta, ATXN3-Q75 aggregates and P62 colocalization; settings: range over trehalose and the four compounds; for Colocalization coefficient of ATXN3-Q75-GFP with LC3 puncta: untreated 0.014; for Colocalization coefficient of LC3 with P62: untreated 0.21; for LC3 puncta per cell: untreated induced 2.7
Procedure: ATXN3-Q75-GFP SY5Y cells were seeded onto 12-well plates (1 × 10^5/well) containing poly-L-lysine-coated coverslip on day 1; treated with retinoic acid, test compounds, and doxycycline on day 2; and fixed, permeabilized, and blocked on day 8, as described. The primary anti-LC3 antibody (1:1000; Cell Signaling #83506, Danvers, MA, USA) or anti-P62 antibody (1:1500; Cell Signaling #5114) was used to stain cells at 4 °C overnight. After washing with PBS containing 0.1% Tween 20 (PBST), cells were incubated for 2 h at room temperature with Cy5-conjugated (1:1000, Jackson ImmunoResearch 715-175-150) or Alexa Fluor 555-conjugated (1:500; Invitrogen #A-31572) secondary antibody, and washed three times with PBST. Nuclei were detected using DAPI (0.1 μg/mL; Sigma-Aldrich). The stained cells on coverslips were mounted onto microscope slides with Vectashield antifade mounting medium (Vector Laboratories, Newark, CA, USA) and examined using a Zeiss LSM880 confocal microscope (Carl Zeiss AG, Oberkochen, Baden-Württemberg, Germany). Cell images were acquired at excitation/emission wavelengths of 649/666 nm, 482/536 nm, 555/582 nm, and 385/461 nm for stained LC3 puncta, aggregates, P62, and nuclei, respectively. For colocalization, 300 cells from three independent experiments were analyzed and quantified for the proportion of pixels that LC3 (red) colocalized with P62 (yellow) using Mander’s overlap coefficient (MOC) in ZEN software version 2.1 (Carl Zeiss AG).

[4] = tested on: ATXN3-Q75-GFP SH-SY5Y cells; experiment: Western blot of LC3-II:LC3-I ratio; settings: uninduced = 100%, untreated induced 76%, range over trehalose and the four compounds
Procedure: For the immunoblotting analysis, ATXN3-Q75-GFP SH-SY5Y cells were seeded in 6-well plates (3 × 10^5/well) and treated with retinoic acid, test compounds, and doxycycline, as described. On day 8, cells were collected and lysed in buffer (50 mM Tris-HCl pH 8.0, 150 mM NaCl, 2 mM EDTA pH 8.0, 0.1% SDS, 0.5% sodium deoxycholate, 1% NP-40) containing the protease inhibitor cocktail (Sigma-Aldrich). After sonication, the lysates were centrifuged (12,000× g for 10 min at 4 °C) and protein concentrations determined (Bradford protein assay; Bio-Rad, Hercules, CA, USA). Aliquots of protein (20 µg) were separated by electrophoresis using 12% SDS-polyacrylamide gel followed by transfer to a polyvinylidene fluoride membrane. After being blocked with 5% skim milk at 4 °C overnight, the membrane was stained with LC3 (1:1000; Medical & Biological Laboratories Co. #PM036, Tokyo, Japan) or GAPDH (glyceraldehyde 3-phosphate dehydrogenase) (1:1000, MDBio #30000002, Taipei, Taiwan) primary antibody at 4 °C overnight. The immune complexes were detected using HRP-conjugated goat anti-rabbit IgG antibody and chemiluminescent substrate, as described.

[5] = tested on: ATXN3-Q75-GFP SH-SY5Y cells; experiment: High-content analysis of ATXN3-Q75 aggregation in cells; settings: trehalose 10 mM; untreated induced cells 8.2%; day 8
Procedure: as §1, with “ATXN3-Q75 aggregation and neurite outgrowth assays were performed on day 8 using a high-content imaging system (ImageXpress Micro Confocal; Molecular Devices).” left out
For the aggregation assay, cells were stained with Hoechst 33342 (0.1 µg/mL; Sigma-Aldrich) at 37 °C for 30 min. […] ATXN3-Q75 aggregation was determined by Transfluor technology based on GFP fluorescence intensity. […] Nuclei were detected using DAPI (0.1 μg/mL; Sigma-Aldrich). […] To quantify neurite outgrowth, microscopic images were segmented with multi-colored masks to assign each outgrowth to a cell body for quantification. Neurite total length (μm) and numbers of process (primary neurites originating from neuronal cell body) and branch (secondary neurites extended from primary neurites) were analyzed (Neurite Outgrowth Application Module; Molecular Devices). In general, 104 cells in each biological replicate were analyzed.

[6] = tested on: ATXN3-Q75-GFP SH-SY5Y cells; experiment: Filter trap assay of cell lysates; settings: trehalose 10 mM; without compound = 100%
Procedure: The filter retardation assay was performed to quantify ATXN3-Q75 protein aggregates. The purified Trx-His-ATXN3-Q75 protein was incubated with test compounds (100 µM) at 37 °C for 2 days as described. In addition, proteins from compound-treated ATXN3-Q75-GFP SH-SY5Y cells were prepared (as described in Western blotting). Proteins (0.5 µg of biochemical reaction or 20 µg of cellular lysates) were diluted in 2% SDS in phosphate-buffered saline (PBS) and filtered through a cellulose acetate membrane (0.45-μm pore size; Sterlitech, Auburn, WA, USA) pre-equilibrated in 2% SDS in PBS on a dot-blot filtration apparatus (Bio-Rad Laboratories, Hercules, CA, USA). After washing with 2% SDS buffer, the membrane was blocked in PBS containing 5% skim milk at 4 °C overnight. Insoluble ATXN3-Q75 was probed with an anti-His tag (1:2000; OriGene #TA100013, Rockville, MD, USA) or anti-ATXN3 (1:1000; Invitrogen #PA5-26251) antibody. The immune complex on the filter was detected using horseradish peroxidase (HRP)-conjugated goat anti-mouse (#GTX213111-01) or goat anti-rabbit (#GTX213110-01) immunoglobulin G (IgG) antibody (1:5000; GeneTex, Irvine, CA, USA) and a chemiluminescent HRP substrate (Millipore, Billerica, MA, USA). The chemiluminescent signals were captured with an ImageQuant LAS 4000 (GE Healthcare, Chicago, IL, USA) and quantified (Multi Gauge V3.0 software, Fujifilm, Tokyo, Japan). […]

[7] = compound 10 µM, range over the four named compounds

For `O=C(/C=C/c1ccco1)c1c(O)c2ccccc2oc1=O` [LM-022], the IC50 at 1 day [1] was 102 µM.

`CC(=O)/C(=C\c1ccccc1[N+](=O)[O-])Cc1c(-c2ccccc2)[nH]c2ccccc12` [NC009-3] gave an IC50 at 1 day [1] of over 100 µM.

For `CCc1cccc2c(C/C(=C/c3ccccc3[N+](=O)[O-])C(C)=O)c[nH]c12` [NC009-6], the IC50 at 1 day [1] was 176 µM, the Neurite branch [2, 7] was 1.34–1.37 and the Neurite process ([2]; compound 10 µM, untreated 2.41, range over the four named compounds) was 2.55–2.57. The Neurite length [2, 7] was 26.1–26.9 µm, the “Colocalization coefficient of ATXN3-Q75-GFP with LC3 puncta” value ([3]; compound 10 μM) was 0.025–0.030 and the “Colocalization coefficient of LC3 with P62” value ([3]; compound 10 μM) was 0.26–0.29. The “LC3 puncta per cell” value ([3]; compound 10 μM) was 4.6–6.7 and the “Relative LC3-II:LC3-I ratio” value ([4]; compound 10 μM) was 102–124%.

In the case of `OC[C@H]1O[C@H](O[C@H]2O[C@H](CO)[C@@H](O)[C@H](O)[C@H]2O)[C@H](O)[C@@H](O)[C@@H]1O` [trehalose, reference compound], the “Percentage of aggregated cells” value [5] is reported as 7.4%, the “Insoluble aggregated proteins in cell lysates (filter trap)” value [6] is reported as 45% and the Neurite branch ([2]; trehalose 10 mM) is reported as 1.31. The Neurite length ([2]; trehalose 10 mM) was 25.5 µm, the “Colocalization coefficient of ATXN3-Q75-GFP with LC3 puncta” value ([3]; trehalose 10 mM) was 0.025–0.030 and the “Colocalization coefficient of LC3 with P62” value ([3]; trehalose 10 mM) was 0.26–0.29. The “LC3 puncta per cell” value ([3]; trehalose 10 mM) was 4.6–6.7 and the “Relative LC3-II:LC3-I ratio” value ([4]; trehalose 10 mM) was 102–124%.
